Here are results for three compounds from patent US6376430B1, “Enhancement of seed yield of soybeans by a substituted benzoyl urea” (Uniroyal Chemical Company, Inc., priority 1997, dated 2002).

One data set relates to determinate soybeans. In words: Field applications on determinate soybeans (29 site data base), seed yield. As to conditions: for determinate soybean yields: Diflubenzuron 0.035 kg/ha, BENLATE 0.56 to 0.84 kg/ha, applied from R2 through R5 growth stages, untreated control 2190 kg/ha; for yield increase over the untreated control: one or two field applications of Diflubenzuron at 0.034 kg ai/ha, 29 sites, determinate soybeans. The data set is classed as in vivo, soybean. An excerpt:
In this invention, Diflubenzuron is typically sprayed during the period from R2 through R5 for controlling foliar feeding insects. In the States of Mississippi, Florida, Tennessee, Illinois, Arkansas, Louisiana, and Texas results have been compiled where one or two field applications of Diflubenzuron at 0.034 kg ai/ha (0.031 lb ai/acre) were applied to control insects on the determinate soybeans planted. A fungicide, Benomyl, methyl-1-(butylcarbamoyl)-2-benzamidazolecarbamate [CAS 17804-35-2], available as BENLATE™ from DuPont deNemour, Wilmington, Del., was also applied alone or in combination with Diflubenzuron for fungal pathogen control.

The next data set relates to indeterminate soybeans. In words: Field applications on northern indeterminate soybean varieties (25 sites), seed yield, pod counts, seed size. The data set is classed as in vivo. The source says: Diflubenzuron alone gave a 376 kg/ha (5.6 bu/acre) increase over the untreated control; the addition of Benomyl (methyl-1-(butylcarbamoyl)-2-benzamidazolecarbamate) only conferred another 0.5 bushel increase. There were no reported foliar feeding insect infestations of significance in any of the trials.
This is a similar % increase to the increased seed yields found in Table 3. […] Thus Diflubenzuron may be more consistent than TIBA in generating soybean seed yield increases since Diflubenzuron is not visually altering the carbon fixation pool of the plant.

In a further data set the test system is soybean. As to conditions: cited from earlier work.

In the case of `CCCCNC(=O)n1c(NC(=O)OC)nc2ccccc21` [Benomyl, methyl-1-(butylcarbamoyl)-2-benzamidazolecarbamate], in the data set with determinate soybeans, the determinate soybean yields is 2439 kg/ha and the “yield increase over the untreated control” value was found to be 3.7 bushels/acre.
As to `O=C(NC(=O)c1c(F)cccc1F)Nc1ccc(Cl)cc1` [Diflubenzuron, N-(2,6-difluorobenzoyl)-N′-(4-chlorophenyl)urea], in the data set with determinate soybeans, the determinate soybean yields is given as 2378 kg/ha and the “yield increase over the untreated control” value is reported as 2.8 bushels/acre. For the same compound, the “visual alteration of the soybean plant canopy” value in the data set on indeterminate soybeans (any research trial) is recorded as “has not been noted”. For the same compound, the “seed size variation across varieties” value in the data set with indeterminate soybeans (no correlation to application time of Diflubenzuron) is roughly 2%. Further, the “pod counts from plants, higher in relation to the untreated control” value with indeterminate soybeans (preliminary results, indeterminate soybean trials) is given as “approximately 16%”.
As to `O=C(O)c1cc(I)cc(I)c1I` [TIBA, 2,3,5-triiodobenzoic acid], the “total seed number per plant” value in the data set on soybean (literature (Bauer et al., 1969; Burton and Curley, 1966; Hicks et al., 1967)) is “increase”. Also, the seed yield result in the data set on soybean (literature, smaller seeds were formed) is “no corresponding increase”.
